The text below walks through data of patent publication US10800772B2 (Gilead Sciences, Inc., priority 2016, dated 2020).

The term EC50 denotes the concentration at which the effect is half-maximal.

Molecules are shown by their SMILES. Read-outs that look alike come from different tables or passages of the source.

What all share (assay type): cell-based, HIV-1
Assay [1] has as its system HIV-IIIb IN T174I BT. In words: Antiviral assay in MT4 cells, HIV-IIIb IN T174I BT virus (from viral breakthrough). The settings on record: Human immunodeficiency virus 1, IIIB, MT4, 120 h, read-out: T174I BT EC50, MT4 cells, HIV-IIIb IN T174I BT (viral breakthrough), 5 days, CellTiter-Glo. The method, boiled down: (§1)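 MT4 cells were pre-infected 3 h at 37 °C with HIV-IIIb (0.004 m.o.i.): wildtype, or IN T174I virus from breakthrough or from dose-escalation passaging. Cells (2000/well) were exposed to 10-point 3-fold compound dilutions in quadruplicate for 5 days at 37 °C. EC50 was the concentration giving 50% decrease in CellTiter-Glo luminescence.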
Background: ATP-based viability assays read luminescence as a measure of living cells.

Assay [2] deals with HIV-IIIb (wildtype). As to the kind of experiment: Antiviral assay in MT4 cells, HIV-IIIb wildtype. The settings on record: read-out: WT EC50. The method, boiled down:
as §1

The subject of assay [3] is HIV-IIIb IN T174I DE. As to the kind of experiment: Antiviral assay in MT4 cells, HIV-IIIb IN T174I DE virus (from dose escalation passaging). The settings on record: Human immunodeficiency virus 1, IIIB, MT4, 120 h, read-out: T174I DE EC50, MT4 cells, HIV-IIIb IN T174I DE (dose escalation), 5 days, CellTiter-Glo. In a few lines:
as §1

Where [4] appears, read: Human immunodeficiency virus 1, IIIB, MT4, 120 h.
[5] abbreviates: Human immunodeficiency virus 1, 120 h, MT4 cells, HIV-IIIb wildtype, 5 days, CellTiter-Glo.

Regarding `COC(=O)N1CC(N2CCC(c3nn(C(F)F)c4ccc(-c5nc6cc(C)c([C@H](OC(C)(C)C)C(=O)O)c(-c7ccc(Cl)cc7)c6s5)nc34)CC2)C1` [Compound 14, (S)-2-(tert-butoxy)-2-(7-(4-chlorophenyl)-2-(1-(difluoromethyl)-3-(1-(1-(methoxycarbonyl)azetidin-3-yl)piperidin-4-yl)-1H-pyrazolo[4,3-b]pyridin-5-yl)-5-methylbenzo[d]thiazol-6-yl)acetic Acid], the EC50 in assay [1] came to 109 nM; in assay [2] (setting [4]), 5 nM; in assay [3], 304 nM.

Turning to `Cc1cc2nc(-c3ccc4c(n3)c(C3CCN([C@@H]5CCN(C)C5)CC3)nn4C)sc2c(-c2ccc(Cl)cc2)c1[C@H](OC(C)(C)C)C(=O)O` [Compound 171, (S)-2-(tert-butoxy)-2-(7-(4-chloro-phenyl)-5-methyl-2-(1-methyl-3-(1-((R)-1-methyl-pyrrolidin-3-yl)piperidin-4-yl)-1H-pyrazolo[4,3-b]pyridin-5-yl)benzo[d]thiazol-6-yl)acetic acid], the EC50 in assay [1] was found to be 98 nM; in assay [2] (setting [4]) it was 5 nM; in assay [3] it was 239 nM.

`COC(=O)N1CC(N2CCC(c3nn(C)c4ccc(-c5nc6cc(C)c([C@H](OC(C)(C)C)C(=O)O)c(-c7ccc(Cl)cc7)c6s5)nc34)CC2)C1` [Compound 167, (S)-2-(tert-butoxy)-2-(7-(4-chloro-phenyl)-2-(3-(1-(1-(methoxycarbonyl)azetidin-3-yl)piperidin-4-yl)-1-methyl-1H-pyrazolo[4,3-b]pyridin-5-yl)-5-methylbenzo[d]thiazol-6-yl) acetic acid]: the results for the EC50 in assay [1], in assay [2] (setting [4]) and in assay [3] were 57 nM, 3 nM and 138 nM, respectively.

For `Cc1cc2nc(-c3ccc4c(c3)c(N3C5CCC3CN(C3COC3)C5)nn4C)sc2c(-c2ccc(Cl)cc2)c1[C@H](OC(C)(C)C)C(=O)O` [Compound 13, (2S)-2-(tert-butoxy)-2-(7-(4-chlorophenyl)-5-methyl-2-(1-methyl-3-(3-(oxetan-3-yl)-3,8-diazabicyclo[3.2.1]octan-8-yl)-1H-indazol-5-yl)benzo[d]thiazol-6-yl)acetic Acid], the values for the EC50 in assay [1], in assay [2] (setting [5]) and in assay [3] were 1230 nM, 10 nM and 3130 nM, respectively.

Turning to `CC(=O)N1CC(N2CCC(c3nn(C)c4ncc(-c5nc6cc(C)c([C@H](OC(C)(C)C)C(=O)O)c(-c7ccc(Cl)cc7)c6s5)nc34)CC2)C1` [Compound 120, (S)-2-(2-(3-(1-(1-acetylazetidin-3-yl)piperidin-4-yl)-1-methyl-1H-pyrazolo[3,4-b]pyrazin-5-yl)-7-(4-chlorophenyl)-5-methylbenzo[d]thiazol-6-yl)-2-(tert-butoxy)acetic acid], the results for the half-maximal effective concentration (EC50) in assay [1], in assay [2] (setting [4]) and in assay [3] were 185 nM, 3 nM and 217 nM, respectively.

For the compound `Cc1cc2nc(-c3ccc4c(c3)c(N3CCN([C@H]5C[C@@H](O)C5)CC3)nn4C)sc2c(-c2ccc(Cl)cc2)c1[C@H](OC(C)(C)C)C(=O)O` [Compound 206, (S)-2-(tert-butoxy)-2-(7-(4-chloro-phenyl)-2-(3-(4-((1s,3s)-3-hydroxy-cyclobutyl)piperazin-1-yl)-1-methyl-1H-indazol-5-yl)-5-methylbenzo[d]thiazol-6-yl) acetic acid], the EC50 in assay [1] turned out to be 340 nM; in assay [2] (setting [4]) it was 21 nM; in assay [3], 539 nM.

For the compound `Cc1cc2nc(-c3ccc4c(c3)c(N3CCC3=O)nn4C)sc2c(-c2ccc(Cl)cc2)c1[C@H](OC(C)(C)C)C(=O)O` [Compound 3, (S)-2-(tert-butoxy)-2-(7-(4-chlorophenyl)-5-methyl-2-(1-methyl-3-(2-oxoazetidin-1-yl)-1H-indazol-5-yl)benzo[d]thiazol-6-yl)acetic Acid], the results for the EC50 in assay [1], in assay [2] (setting [4]) and in assay [3] were 5710 nM, 43 nM and 5710 nM, respectively.

On to `Cc1cc2nc(-c3ccc4c(c3)c(C3CN(C(C)(C)C)C3)nn4C)sc2c(-c2ccc(Cl)cc2)c1[C@H](OC1CC1)C(=O)O` [Compound 60, (S)-2-(2-(3-(1-(tert-butyl)azetidin-3-yl)-1-methyl-1H-indazol-5-yl)-7-(4-chlorophenyl)-5-methylbenzo[d]thiazol-6-yl)-2-cyclopropoxyacetic acid], for which the EC50 is 477 nM in assay [1], 31 nM in assay [2] (setting [4]) and 692 nM in assay [3].

In the case of `CCOC(=O)N1CCC(c2nn(C)c3ccc(-c4nc5cc(C)c([C@H](OC(C)(C)C)C(=O)O)c(-c6ccc(Cl)cc6)c5s4)cc23)CC1` [Compound 24], the EC50 in assay [1] came to 769 nM; in assay [2] (setting [4]), 16 nM; in assay [3], 1090 nM.

Consider `CC(=O)N1CC(N2CCC(c3nn(C(F)F)c4ccc(-c5nc6cc(C)c([C@H](OC(C)(C)C)C(=O)O)c(-c7ccc(Cl)cc7)c6s5)nc34)CC2)C1` [Compound 183, (S)-2-(2-(3-(1-(1-acetylazetidin-3-yl)piperidin-4-yl)-1-(difluoromethyl)-1H-pyrazolo [4,3-b]pyridin-5-yl)-7-(4-chloro-phenyl)-5-methylbenzo[d]thiazol-6-yl)-2-(tert-butoxy) acetic acid], for which the EC50 in assay [1] turned out to be 29 nM; in assay [2] (setting [4]), 2 nM; in assay [3], 69 nM.

For the compound `Cc1cc2nc(-c3ccc4c(c3)c(C3CCN(C5COC5)CC3)nn4C)sc2c(-c2ccc(Cl)cc2)c1[C@H](OC1CC1)C(=O)O` [Compound 22, (S)-2-(7-(4-chlorophenyl)-5-methyl-2-(1-methyl-3-(1-(oxetan-3-yl)piperidin-4-yl)-1H-indazol-5-yl)benzo[d]thiazol-6-yl)-2-cyclopropoxyacetic Acid], the EC50 in assay [1] stood at 48 nM; in assay [2] (setting [5]), 23 nM; in assay [3] it was 108 nM.

In the case of `Cc1cc2nc(-c3ccc4c(c3)c(C3CCN(C5CN(C)C5)CC3)nn4C)sc2c(-c2ccc(Cl)cc2)c1[C@H](OC(C)(C)C)C(=O)O` [Compound 31, (S)-2-(tert-butoxy)-2-(7-(4-chlorophenyl)-5-methyl-2-(1-methyl-3-(1-(1-methylazetidin-3-yl)piperidin-4-yl)-1H-indazol-5-yl)benzo[d]thiazol-6-yl)acetic acid], the concentration giving a half-maximal response (EC50) in assay [1] turned out to be 138 nM; in assay [2] (setting [4]), 12 nM; in assay [3], 236 nM.

Regarding `COC(=O)N1CC[C@H]1CN1CCC(c2nn(C)c3ccc(-c4nc5cc(C)c([C@H](OC(C)(C)C)C(=O)O)c(-c6ccc(Cl)cc6)c5s4)cc23)CC1` [Compound 150, (S)-2-(tert-butoxy)-2-(7-(4-chloro-phenyl)-2-(3-(1-(((S)-1-(methoxy-carbonyl)azetidin-2-yl)methyl)piperidin-4-yl)-1-methyl-1H-indazol-5-yl)-5-methyl-benzo[d]thiazol-6-yl)acetic acid], the EC50 in assay [1] was 214 nM; in assay [2] (setting [4]), 4 nM; in assay [3], 182 nM.

With `CC(=O)N1CC[C@@H]1CN1CCC(c2nn(C)c3ccc(-c4nc5cc(C)c([C@H](OC(C)(C)C)C(=O)O)c(-c6ccc(Cl)cc6)c5s4)cc23)CC1` [Compound 148, (S)-2-(2-(3-(1-(((R)-1-acetyl-azetidin-2-yl)methyl)piperidin-4-yl)-1-methyl-1H-indazol-5-yl)-7-(4-chloro-phenyl)-5-methylbenzo[d]thiazol-6-yl)-2-(tert-butoxy) acetic acid], the half-maximal effective concentration (EC50) in assay [1] was 143 nM; in assay [2] (setting [4]), 12 nM; in assay [3], 199 nM.

In the case of `Cc1cc2nc(-c3ccc4c(c3)c(C3CCN(C(=O)C5COC5)CC3)nn4C)sc2c(-c2ccc(Cl)cc2)c1[C@H](OC(C)(C)C)C(=O)O` [Compound 161, (S)-2-(tert-butoxy)-2-(7-(4-chloro-phenyl)-5-methyl-2-(1-methyl-3-(1-(oxetane-3-carbonyl)piperidin-4-yl)-1H-indazol-5-yl)benzo[d]thiazol-6-yl)acetic acid], the EC50 in assay [1] amounted to 316 nM; in assay [2] (setting [4]), 18 nM; in assay [3], 600 nM.

As for `Cc1cc2nc(-c3ccc4c(c3)c(C3CN(C(C)C)C3)nn4C)sc2c(-c2ccc(Cl)cc2)c1[C@H](OC1CC1)C(=O)O` [Compound 55, (S)-2-(7-(4-chlorophenyl)-2-(3-(1-isopropylazetidin-3-yl)-1-methyl-1H-indazol-5-yl)-5-methylbenzo[d]thiazol-6-yl)-2-cyclopropoxyacetic Acid], the EC50 in assay [1] turned out to be 372 nM; in assay [2] (setting [4]), 36 nM; in assay [3], 1070 nM.

`COC(=O)N(C)C1CN(c2nn(C)c3ccc(-c4nc5cc(C)c([C@H](OC(C)(C)C)C(=O)O)c(-c6ccc(Cl)cc6)c5s4)cc23)C1` [Compound 102, (S)-2-(tert-butoxy)-2-(7-(4-chlorophenyl)-2-(3-(3-((methoxycarbonyl)(methyl)amino)azetidin-1-yl)-1-methyl-1H-indazol-5-yl)-5-methylbenzo[d]thiazol-6-yl)acetic acid]: the 50% effective concentration (EC50) came to 934 nM in assay [1], 13 nM in assay [2] (setting [4]) and 1270 nM in assay [3].

On to `Cc1cc2nc(-c3ccc4c(c3)c(C3CCN(C5CC(F)(F)C5)CC3)nn4C)sc2c(-c2ccc(Cl)cc2)c1[C@H](OC(C)(C)C)C(=O)O` [Compound 155, (S)-2-(tert-butoxy)-2-(7-(4-chloro-phenyl)-2-(3-(1-(3,3-difluorocyclo-butyl)piperidin-4-yl)-1-methyl-1H-indazol-5-yl)-5-methylbenzo[d]thiazol-6-yl) acetic acid], for which the values for the concentration giving a half-maximal response (EC50) in assay [1], in assay [2] (setting [4]) and in assay [3] were 922 nM, 13 nM and 1920 nM, respectively.
